For series [1], the system named is human lung cancer cell line H460. In words: LDH analysis (membrane integrity) of H460 cancer cells. It is filed as cell-based. Particulars: H460, 3 days. The protocol:
(§1) Cancer Cell Culture. The mouse liver cancer cell line BNLT3 (gift of Dr. Jack Wands, Brown University) and the human lung cancer cell line H460 (ATCC) were seeded into 96-well plates at a density of 4,000 cells/well and cultured at 37° C., 5% CO2, in DMEM (11965, Gibco) supplemented with 10% fetal bovine serum, 20 mM HEPES, 1 mM sodium pyruvate, and […] gentamycin (all reagents came from Gibco).
(§2) Cell Insults and Treatments. Determination of concentration for each anticancer drug in our experiments was based on its reported concentration in human cerebral spinal fluid (CSF) in chemotherapy, literature report of its neurotoxicity in culture, and our preliminary in vitro experimental data. […] For ROS examination, the neurons were insulted with both 100 μM of MTX and 25 μM of 5-FU by 15 d.i.v. PAN-811.Cl.H2O was added to cultures to final concentrations of 1.25, 2.5, 5, and 10 μM at the same time as addition of the anticancer drugs.
(§3) Quantitative Assays and Morphological Assessment. Cell membrane integrity and mitochondrial function of either neurons or cancer cells were measured with LDH and 3-(4,5-dimethylthiazol-2-yl)-5-(3-carboxymethoxyphenyl)-2-(4-sulfophenyl)-2H-tetrazolium [MTS] analyses, respectively. The latter has been used to quantify cell survival. For the LDH assay, a mixture of a 35 μL aliquot of culture supernatant and 17.5 μL of Mixed Substrate, Enzyme and Dye Solutions (Sigma) was incubated at room temperature (RT) for 30 minutes. For the MTS assay, 10 μL of MTS reagent (Promega) was added to a culture well containing neurons in 50 μL of medium. The preparations were incubated at 37° C. for 2 hours. The preparations for both assays were then spectrophotometrically measured at 490 nm using a 96-well plate reader (Mode 550, Bio-Rad). Neuronal cell death was morphologically determined based on the integrity of the cell soma and continuity of neuronal processes. The change in number of cancer cells was judged directly by cell density. Cells were photographed under an inverted phase contrast microscope (IX 70, Olympus) using 10× or 20× objective.
Data Analysis. Data were generated from 4-6 replicate wells, expressed as mean±standard deviation (SD), and statistically evaluated at a significance level of […] with one factor ANOVA or Student's t-test by using software […] (http://vassarstats.net/) followed by the Tukey HSD test. Figure symbols are as follows: #, P<0.05, and ##, P<0.01, compared with control; *, P<0.05, and **, P<0.01, compared with the insulted group; §§, P<0.01, compared with PAN-811 treated group by Student's t-test.

Series [2] has as its system mouse liver cancer cell line BNLT3. The series is described as follows: MTS analysis of BNLT3 cancer cells. Particulars: BNLT3, 3 days, 10 μM PAN-811 or both. It is filed as cell-based. How it is done:
as §1, §2
as §3, with “The preparations were incubated at 37° C. for 2 hours.” left out, “The change in number of cancer cells was judged directly by cell density. Cells were photographed under an inverted phase contrast microscope (IX 70, Olympus) using 10× or 20× objective.” left out
Data Analysis. Data were generated from 4-6 replicate wells, expressed as mean±standard deviation (SD), and statistically evaluated at a significance level of 1% with one factor ANOVA or Student's t-test by using software […] […]

Series [3] has as its system human lung cancer cell line H460. The series is described as follows: MTS analysis of H460 cancer cells. It is filed as cell-based. The settings on record: H460, 3 days; 3.5 μM CDDP, 10 μM PAN-811 or both; FIG. 5(d). The protocol: as §1
Cell Insults and Treatments. Determination of concentration for each anticancer drug in our experiments was based on its reported concentration in human cerebral spinal fluid (CSF) in chemotherapy, literature report of its neurotoxicity in culture, and our preliminary in vitro experimental data. […]
(§4) Quantitative Assays and Morphological Assessment. Cell membrane integrity and mitochondrial function of either neurons or cancer cells were measured with LDH and 3-(4,5-dimethylthiazol-2-yl)-5-(3-carboxymethoxyphenyl)-2-(4-sulfophenyl)-2H-tetrazolium [MTS] analyses, respectively. The latter has been used to quantify cell survival. […] The preparations for both assays were then spectrophotometrically measured at 490 nm using a 96-well plate reader (Mode 550, Bio-Rad). Neuronal cell death was morphologically determined based on the integrity of the cell soma and continuity of neuronal processes. […]

Series [4] concerns mixed cortical and striatal neurons. In words: LDH analysis (cell membrane leakage) of neurons insulted with anticancer drugs. Particulars: MTX 100 μM, 5-FU 25 μM, CDDP 3.5 μM. It is filed as cell-based. The protocol: Neuronal Cell Culture. Mixed cortical and striatal neurons from embryonic day 17 male Sprague-Dawley rats (tissue obtained from NIH) were seeded into poly-D-lysine coated 96-well plates at density of 50,000 cells/well and initially cultured at 37° C., 5% CO2, in neurobasal medium (NB) with B27 supplement (Invitrogen) containing full strength of AOs to obtain highly enriched (95%) neurons. Since AOs, including vitamin E, vitamin E acetate, superoxide dismutase (SOD), catalase (CAT), and GSH, are additives to culture medium, reduction of AO concentration in culture medium provides an approach to determine the level of OS involvement in a neurotoxic process. […]
as §4

The subject of series [5] is hydrogen peroxide-induced LDH release. Particulars: PAN-811 at 10 μM; compared with untreated and H2O2-insulted group; cited from earlier work.
The subject of series [6] is MCAo infarct formation, brain edema, mortality. The settings on record: single i.v. bolus, 2 mg/kg, two-hour MCAo; cited from earlier work.
[7] abbreviates: 25 μM 5-FU, 10 μM PAN-811 or cotreatment, FIG. 5(f).
Where [8] appears, read: 3.5 μM CDDP, 10 μM PAN-811 or both, FIG. 5(g).
Where [9] appears, read: 100 μM MTX or 10 μM PAN-811, FIG. 5(e).

For the compound `O=c1[nH]cc(F)c(=O)[nH]1` [5-FU, 5-fluorouracil], the “increase in LDH reading in the culture supernatant” value in series [1] (setting [7]) is 124%.

`N.N.[Cl][Pt][Cl]` [CDDP]: the “reduction of MTS reading” value in series [2] (3.5 μM CDDP, FIG. 4(f)) amounted to 44%; in series [3], 22%. Also, the “increase in LDH reading in the culture supernatant” value in series [1] (setting [8]) is reported as 71%. Besides, the “LDH increase in culture supernatant (cell membrane leakage)” value in series [4] (neurons in 25% AO, 3 days, FIG. 1(c)) was “significant LDH increase”. Moreover, in series [4] (neurons, 12.5% AO condition, FIG. 2(b)), the “increase in LDH reading” value is on record as “significant increases in LDH reading”.

For `CN(Cc1cnc2nc(N)nc(N)c2n1)c1ccc(C(=O)N[C@@H](CCC(=O)O)C(=O)O)cc1` [MTX, methotrexate], the “increase in LDH reading in the culture supernatant” value in series [1] (setting [9]) was 95%.

With `NC(=S)N/N=C/c1ncccc1N` [PAN-811, 3-aminopyridine-2-carboxaldehyde thiosemicarbazone], the “reduction of MTS reading” value was 94% in series [2] (3.5 μM CDDP, FIG. 4(f)) and “the same level as MTX” in series [2] (100 μM MTX, FIG. 4(d)). Further, the “maximal protection against hydrogen peroxide-induced LDH release” value in series [5] is 90%. The results for the “increase in LDH reading in the culture supernatant” value in series [1] (setting [8]), in series [1] (setting [7]) and in series [1] (setting [9]) were 30%, 30% and 31%, respectively. Moreover, the “maximal protection (reduction of infarct volume)” value in series [6] was 50%.
